Measurements published in US5700779A (Cortech, Inc., priority 1996, dated 1997).
Where no end group is shown, it is not given here. [ ]: non-standard residue; d: D form. Oic = O=C(O)[C@@H]1C[C@@H]2CCCC[C@@H]2N1; Hyp = O=C(O)[C@@H]1C[C@@H](O)CN1; dTic = O=C(O)[C@H]1Cc2ccccc2CN1; 2Thi = N[C@@H](Cc1cccs1)C(=O)O

What was measured:
[1] = molecular target: T1, bradykinin type 1 (BK1) receptors (Oryctolagus cuniculus, UniProt P48748); assay: rabbit aorta in vitro B1 antagonist activity; settings: reversal of des-Arg9-bradykinin contraction of rabbit aorta strips
T1 construct: Spiral strips were mounted under 2 g resting tension in 5 mL tissue baths; from tissue; host or cells: rabbit thoracic aorta spiral strips (New Zealand White)
T1 sequence (P48748 1-352): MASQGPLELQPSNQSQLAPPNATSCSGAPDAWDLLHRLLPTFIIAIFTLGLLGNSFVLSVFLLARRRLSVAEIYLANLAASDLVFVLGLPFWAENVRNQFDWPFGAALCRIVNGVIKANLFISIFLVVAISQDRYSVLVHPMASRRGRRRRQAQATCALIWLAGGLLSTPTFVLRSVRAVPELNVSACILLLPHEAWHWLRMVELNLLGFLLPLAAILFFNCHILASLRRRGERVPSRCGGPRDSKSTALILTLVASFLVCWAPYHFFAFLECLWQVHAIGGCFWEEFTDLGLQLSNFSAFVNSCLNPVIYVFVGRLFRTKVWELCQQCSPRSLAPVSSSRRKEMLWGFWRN
Method: Female New Zealand White rabbits were killed by overdose of pentobarbital (80 mg/kg i.v.) and the thoracic aorta removed. […] Two concentration-effect curves for des-Arg^9 -bradykinin were constructed at 1 and 3 hours. At five hours des-Arg^9 -bradykinin was added to the bath to a final concentration of […]. This produced stable, sustained and prolonged contractions of up to 45 minutes.

[2] = molecular target: T2, bradykinin type 2 (BK2) receptors (Rattus norvegicus, UniProt P25023); assay: standard rat uterus pA2 assay (in vitro B2 antagonist activity); settings: for % Recovery: recovery of agonist response after washing 40 minutes following highest antagonist concentration; for B2 pA2 (Rat Uterus): antagonist preincubated for 15 minutes; for activity in rat uterus functional tissue assay: summary of Table 1
T2 construct: Uterine horns were removed, placed under a 1 g resting tension in 4 mL tissue baths; from tissue; host or cells: rat uterine horns (Sprague-Dawley, stilbesterol-pretreated)
T2 sequence (P25023 1-396): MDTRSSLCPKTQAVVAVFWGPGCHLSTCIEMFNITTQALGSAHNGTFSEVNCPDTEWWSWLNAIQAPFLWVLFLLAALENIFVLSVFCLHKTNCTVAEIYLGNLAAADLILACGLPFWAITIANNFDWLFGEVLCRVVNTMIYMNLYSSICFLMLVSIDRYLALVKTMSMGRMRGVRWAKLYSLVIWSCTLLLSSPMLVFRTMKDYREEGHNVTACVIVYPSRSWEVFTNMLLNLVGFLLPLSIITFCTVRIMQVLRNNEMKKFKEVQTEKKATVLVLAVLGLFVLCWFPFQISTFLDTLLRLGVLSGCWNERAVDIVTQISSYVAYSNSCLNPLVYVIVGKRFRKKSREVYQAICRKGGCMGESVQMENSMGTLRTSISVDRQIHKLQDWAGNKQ
Method: The standard rat uterus pA2 assay was conducted as follows:
Female Sprague-Dawley rats (200-250 g) were pretreated with stilbesterol (100 μg/kg) and killed 18 hours later by a blow on the head and exsanguinated. Uterine horns were removed, placed under a 1 g resting tension in 4 mL tissue baths containing De Jalon's solution at 31° C. and aerated. […] Antagonist potency was calculated according to the method of Arunlakshana and Schild (Arunlakshana, O., Schild, H. O., Br. J. Pharmacology 14 48-58 (1959)). […] The difference in pD2 values compared to concurrent control reflected the "percentage recovery" of agonist response.

in vitro = settings: pig, lung membranes, pH 7.2
Method: (§1) Rat or porcine lung and kidney cortical membranes were prepared using differential centrifugation as described by Skidgel (Booth, A. G. et al., Biochemical Journal 142, 575-581 (1974)) for lung or by Booth (Erdos, E. G. et al., Biochemical Pharmacology 33 3471-3478 (1984)) for kidney. Membrane preparations were stored at -20° C. […] Ten microliters of this working solution were delivered into a series of Eppendorf tubes, followed by human or guinea pig plasma (90 μL) or PBS as a control blank, and incubated for various time periods. At each time point the reaction was quenched with the addition of 100 μL 1N HCl in either acetonitrile or ethanol. Samples were allowed to stand approximately fifteen minutes and were then spun at 14,000 rpm for 10 minutes. Supernatant fractions were removed, filtered through 0.22 μM filters (Millipore) and analyzed by HPLC (C18, 12-80% acetonitrile in water, both containing 0.1% trifluoroacetic acid, monitoring at 214 nm.
(§2) Porcine kidney lung preparations were diluted 1:10 with PBS; rat kidney preparations were diluted 1:100 with PBS; porcine lung preparations were diluted 1:1 in PBS. […] At various time points the reactions were quenched by the addition of 100 μL of ethanol, centrifuged and analyzed by HPLC as described above. The half-life for the disappearance of the HPLC peak was determined using the computer program ENZFIT (Elsevier).

[3] = stability in porcine kidney cortical membranes; format: in vitro ADME; settings: pig, pH 7.2, porcine kidney preparation
Method: as §1, §2

[4] = molecular target: T3, bradykinin type 2 (BK2) receptors (Cavia porcellus, UniProt O70526); assay: antagonist binding to guinea pig ileum (tritium labeled bradykinin)
T3 construct: from tissue; host or cells: guinea pig ileum membrane preparation (Hartley strain)
T3 sequence (O70526 1-372): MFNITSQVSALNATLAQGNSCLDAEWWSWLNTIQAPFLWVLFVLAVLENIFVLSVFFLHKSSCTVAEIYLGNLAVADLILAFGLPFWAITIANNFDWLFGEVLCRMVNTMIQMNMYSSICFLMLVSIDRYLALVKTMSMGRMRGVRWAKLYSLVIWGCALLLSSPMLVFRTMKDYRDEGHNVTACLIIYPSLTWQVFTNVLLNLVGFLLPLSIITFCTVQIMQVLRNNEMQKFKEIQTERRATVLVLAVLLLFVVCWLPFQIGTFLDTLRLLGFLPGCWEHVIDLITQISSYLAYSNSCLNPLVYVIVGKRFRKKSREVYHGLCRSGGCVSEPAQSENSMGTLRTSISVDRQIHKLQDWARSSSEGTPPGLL
Method: Radioactivity was determined by liquid scintillation counting.

D-Arg-Arg-Pro-Hyp-Gly-Thi-Ser-D-Tic-Oic-Arg [HOE-140, reference compound]
B1 (Rabbit Aorta) [1]: Inactive | % Recovery [2]: 41%

D-Arg-Arg-Pro-Hyp-Gly-Thi-Ser-DTic-NChg [Compound 2]
% Recovery [2]: 0%

D-Arg-Arg-Pro-Hyp-Gly-Thi-Ser-Igl*-NChg-Arg [Compound 3]
% Recovery [2]: 100%

D-Arg-Arg-Pro-Hyp-Gly-Thi-Ser-Igl*-NChg-Arg [Compound 4]
B2 pA2 (Rat Uterus) [2]: Agonist | activity in rat uterus functional tissue assay [2]: agonists

D-Arg-Arg-Pro-Hyp-Gly-Thi-Ser-NBng-Oic [Compound 1]
% Recovery [2]: 32%

D-Arg-Arg-Pro-Hyp-Gly-Thi-Ser-NPeg-Oic-Arg [Compound 11]
B2 pA2 (Rat Uterus) [2]: Agonist | activity in rat uterus functional tissue assay [2]: agonists

RPPGFSPFR [Bradykinin, Arg^1 -Pro^2 -Pro^3 -Gly^4 -Phe^5 -Ser^6 -Pro^7 -Phe^8 -Arg^9]
half-life at 100 µM (in vitro): 3 min | half-life at 100 µM [3]: 3 min | Ki [4]: 0.0301 nM

[dR]RP[Hyp]GGS[dTic][Oic]R [CP-0601, reference compound]
% Recovery [2]: 75%

[dR]RP[Hyp][2Thi]GS[dTic][Oic]R [CP-0589, reference compound]
% Recovery [2]: 57%

δ-Gpa-Arg-Pro-Hyp-Gly-Thi-Ser-D-Tic-NChg-Arg [Compound 13]
% Recovery [2]: 66% | activity in rat uterus functional tissue assay [2]: highly potent antagonists

δ-Gpa-Pro-Hyp-Gly-Thi-Ser-D-Tic-NChg-Arg [Compound 14]
% Recovery [2]: 81%
